The values below are quoted from earlier work in US8283364B2, “Compounds which have activity at M1 receptor and their uses in medicine” (Glaxo Group Limited, priority 2005, dated 2012).

In data set [1] the test system is dopamine driven behaviours. As to conditions: amphetamine induced locomotion in rats, apomorphine induced climbing in mice, turning in 6-OH-DA lesioned rats, amphetamine-induced motor unrest in monkeys.
Data set [2] relates to A10 and A9 dopamine cell firing. As to conditions: A10 versus A9.

For the compound `CCCCCCOc1nsnc1C1=CCCN(C)C1` [xanomeline], the “effect on dopamine driven behaviours” value in data set [1] is on record as “reverses a number of dopamine driven behaviours”. In addition, the “effect on dopamine cell firing” value in data set [2] is reported as “inhibit A10, but not A9, dopamine cell firing”. The “effect on psychotic symptoms (suspiciousness, hallucinations, delusions)” value in the data set with psychotic symptoms (Alzheimer's patients) was “reduce psychotic symptoms”. Besides, the side effects result in the data set on psychotic symptoms (ascribed to relatively non-selective nature of the compound) is “dose-limiting peripheral cholinergic side effects”.
